Data: patent US20200147217A1, “FUCOIDAN-BASED THERAGNOSTIC COMPOSITION” (National Cancer Center, priority 2018, published 2020)

Legend:
[1] = tested on: HT1080 human fibrosarcoma-transplanted animal model; test: Tumor-targeting fluorescence imaging after intravenous injection; format: in vivo, mice
Experimental: In Example 11, in order to analyze a tumor-targeting effect of a photosensitizer-fucoidan conjugate, an experiment was performed, in which the conjugate is intravenously administered to an experimental animal and a fluorescence image is taken.
Phosphate buffer (negative control), a free photosensitizer (free Ce6), or a photosensitizer-fucoidan conjugate (Ce6-Fucoidan) was injected intravenously, respectively, into an HT1080 human fibrosarcoma-transplanted animal model, and fluorescence images were taken with an IVIS imaging machine at 5 minutes and 24 hours after the injection (λex 660/20 nm, λem 710/40 nm). […] In FIG. 19B, fluorescence image signal values of the tumor tissues are quantified to compare the amount of photosensitizer accumulated in the tumor tissues. […] FIG. 19C illustrates results obtained by allowing mice to be euthanized, obtaining spleen, kidney, liver, and lung tissues, and identifying ex vivo fluorescence images thereof. […] FIG. 19D illustrates results obtained by freezing the obtained tumor tissues to prepare frozen sections, and then identifying, with a confocal microscope, a degree of penetration of the photosensitizer into each tumor tissue.

[2] = tested on: HT1080 subcutaneous xenograft tumor; test: Tumor growth inhibition in HT1080 xenograft model; format: in vivo, Nude mice (Balb/c nude); settings: 5 mg Ce6 equivalent/kg i.v., +PDT 670 nm, 20 J/cm^2
Experimental: A photodynamic therapeutic effect caused by a photosensitizer-fucoidan conjugate was evaluated in a tumor-transplanted animal model. A tumor model into which HT1080 cancer cells are subcutaneously xenografted was injected intravenously with a free photosensitizer (free Ce6) or Ce6-Fucoidan, and light irradiation (PDT) was performed on the tumor site using a 670 nm laser. To evaluate an antitumor effect, the tumor size was measured daily for 10 days, and differences between the respective groups were analyzed. For the control experimental animals, phosphate buffer containing no photosensitizer was injected intravenously.
HT1080, a human fibrosarcoma cell line, was obtained from the American Type Culture Collection (ATCC, USA). The HT1080 cells were cultured, under conditions of 37° C., 5% carbon dioxide, and standard humidity, in Eagle's Minimum Essential Media (MEM) medium supplemented with 10% fetal bovine serum (FBS) and 1% penicillin/streptomycin. Nude mice (Balb/c nude) were subcutaneously injected with HT1080 cancer cells as much as 5×10^6 cells/100 μL, and after 5 to 7 days, it was checked whether subcutaneous tumors are produced. […] The tumor size was measured until Day 10 to prepare a tumor growth graph, and the tumor size was compared between the respective groups. […]

With chlorin e6 [free Ce6] the “fluorescence signal caused by the photosensitizer in tumor frozen sections” value ([1]; confocal microscope, 24 hours after administration) was “hardly observed”, the “fluorescence image signal in tumor tissues” value ([1]; intravenous, 24 hours after injection, IVIS) was “no fluorescence image signal even in tumor tissues” and the “retention in the body” value ([1]; intravenous, up to 24 hours, fluorescence imaging) was “hardly remains in the body at 24 hours”. The “tumor growth inhibitory effect compared with the control” value [2] was “no statistically significant tumor growth inhibitory effect”.
